Source: the supplement of paper PMC10307832

How the values were obtained:
Experiment in all cases: relative viability (nuclei count vs DMSO), 5 days (fraction); higher = more cells survive
[1] = compound: CN(c1ncccc1CNc1nc(Nc2ccc3c(c2)CC(=O)N3)ncc1C(F)(F)F)S(C)(=O)=O + COc1cccc2cc(-c3nc([C@H]4CC[C@H](C(=O)O)CC4)n4ncnc(N)c34)[nH]c12 [OSI-027] (partner 0.5 µM)
Outline: (§1)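 Nuclei were stained with Hoechst during a one-step fixation (final 0.05% Triton X-100, 1% formaldehyde, 1 ug/ml Hoechst) carried out 5 days after dosing, then counted on 4× images. The cells, lung cancer lines in 1536-well plates, had been dosed by pin tool the day after seeding with one drug alone or a fixed anchor-drug dose plus five library-drug doses (not always all listed) in √10 steps. Relative viability is the nuclei count in treated wells divided by that in vehicle wells, and each value is the median of duplicate plates.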

[2] = compound: CN(c1ncccc1CNc1nc(Nc2ccc3c(c2)CC(=O)N3)ncc1C(F)(F)F)S(C)(=O)=O + CCNC(=O)c1noc(-c2cc(C(C)C)c(O)cc2O)c1-c1ccc(CN2CCOCC2)cc1 [Luminespib] (partner 0.01 µM)
Outline: as §1

[3] = compound: CN(c1ncccc1CNc1nc(Nc2ccc3c(c2)CC(=O)N3)ncc1C(F)(F)F)S(C)(=O)=O + CS(=O)(=O)CCNCc1ccc(-c2ccc3ncnc(Nc4ccc(OCc5cccc(F)c5)c(Cl)c4)c3c2)o1 [Lapatinib] (partner 2 µM)
Outline: as §1

[4] = compound: CN(c1ncccc1CNc1nc(Nc2ccc3c(c2)CC(=O)N3)ncc1C(F)(F)F)S(C)(=O)=O + C[C@]1(O)C[C@@H](c2nc(-c3ccc4ccc(-c5ccccc5)nc4c3)c3c(N)nccn32)C1 [Linsitinib] (partner 1 µM)
Outline: as §1

| Cell Line | relative viability ([1]; first compound 0.01 µM) | relative viability ([1]; first compound 0.03162 µM) | relative viability ([1]; first compound 0.1 µM) | relative viability ([1]; first compound 0.3162 µM) | relative viability ([1]; first compound 1 µM) | relative viability ([2]; first compound 0.01 µM) | relative viability ([2]; first compound 0.03162 µM) | relative viability ([2]; first compound 0.1 µM) | relative viability ([2]; first compound 0.3162 µM) | relative viability ([2]; first compound 1 µM) | relative viability ([3]; first compound 0.01 µM) | relative viability ([3]; first compound 0.03162 µM) | relative viability ([3]; first compound 0.1 µM) | relative viability ([3]; first compound 0.3162 µM) | relative viability ([3]; first compound 1 µM) | relative viability ([4]; first compound 0.01 µM) | relative viability ([4]; first compound 0.03162 µM) | relative viability ([4]; first compound 0.1 µM) | relative viability ([4]; first compound 0.3162 µM) | relative viability ([4]; first compound 1 µM) |
| --- | --- | --- | --- | --- | --- | --- | --- | --- | --- | --- | --- | --- | --- | --- | --- | --- | --- | --- | --- | --- |
| NCI-H1651 | 0.802 | 0.794 | 0.738 | 0.796 | 0.739 | 1.03 | 0.957 | 0.708 | 0.688 | 0.667 | 0.82 | 1.02 | 0.9 | 0.731 | 0.784 | 0.996 | 0.999 | 1.25 | 0.994 | 0.993 |
| NCI-H1792 | 0.787 | 0.892 | 0.736 | 0.697 | 0.688 | 0.387 | 0.54 | 0.467 | 0.451 | 0.359 | 0.93 | 0.937 | 0.905 | 0.827 | 0.835 | 0.442 | 0.487 | 0.512 | 0.566 | 0.559 |
| NCI-H2023 | 0.412 | 0.464 | 0.404 | 0.425 | 0.393 | 0.696 | 0.79 | 0.597 | 0.643 | 0.611 | 0.855 | 0.976 | 0.781 | 0.908 | 0.761 | 0.765 | 0.714 | 0.73 | 0.71 | 0.631 |
| COR-L 105 | 0.668 | 0.784 | 0.747 | 0.615 | 0.583 | 0.691 | 0.712 | 0.809 | 0.766 | 0.526 | 0.335 | 0.387 | 0.355 | 0.355 | 0.341 | 0.964 | 1 | 1.09 | 0.882 | 0.67 |
| NCI-H1734 | 0.581 | 0.612 | 0.534 | 0.609 | 0.545 | 0.198 | 0.178 | 0.184 | 0.227 | 0.18 | 0.993 | 1.17 | 1.06 | 1.1 | 1.05 | 0.939 | 1.01 | 0.796 | 0.966 | 0.751 |
| NCI-H3122 | 0.976 | 1.07 | 0.762 | 1.06 | 0.954 | 0.0983 | 0.101 | 0.0795 | 0.0863 | 0.0795 | 1.02 | 1.08 | 1.01 | 0.956 | 0.876 | 1.02 | 1.06 | 0.939 | 0.966 | 0.843 |
| CAL-12T | 0.725 | 0.874 | 0.58 | 0.719 | 0.514 | 0.284 | 0.55 | 0.451 | 0.258 | 0.277 | 0.65 | 0.663 | 0.43 | 0.591 | 0.627 | 0.886 | 0.861 | 0.705 | 0.616 | 0.639 |
| NCI-H2085 | 0.77 | 0.907 | 0.735 | 0.734 | 0.749 | 0.394 | 0.681 | 0.457 | 0.418 | 0.36 | 0.777 | 0.81 | 0.797 | 0.696 | 0.662 | 0.925 | 0.981 | 0.895 | 0.842 | 0.776 |
